Entries after “also recorded” stand apart in the source; their conditions may differ. Read-outs that look alike come from different tables or passages of the source.
What was measured:
[1] = system: tumor 2-HG; assay: 2-HG in paired tumor biopsy samples; assay type: in vivo; conditions: Homo sapiens; 500 mg QD multiple doses, cycle 3 day 1 and cycle 7 day 1, paired biopsies, 21 patients, all tumor types; read-out: 2-HG inhibition in tumors
Procedure: Tumor biopsies were also collected for 2-HG assessment at screening, and at day 1 of cycle 3. Further biopsies were collected depending on the status of disease at cycle 7, day 1 or at any time that disease progression was suspected and/or at the end of treatment.
(§1) Plasma ivosidenib was measured using two validated liquid chromatography-tandem mass spectrometry (LC-MS/MS) methods. The lower limit of quantification (LLOQ) was 1.00 ng/mL (low-range assay) or 50.0 ng/mL (high-range assay). […] Plasma 2-HG concentrations were measured using a qualified LC-MS/MS method with an LLOQ of 30.0 ng/mL. Concentrations of 2-HG in tumor biopsy samples were quantified using qualified LC-MS/MS methods with an LLOQ of 7.5 μg/g for brain tumor homogenate, 100 ng/g for liver tumor homogenate (low-range assay), and 30 μg/g for liver tumor homogenate (high-range assay). Plasma 4β-OHC and cholesterol were measured using a validated LC-MS/MS method. The LLOQ was 5 ng/mL for 4β-OHC and 25 μg/mL for cholesterol in human plasma.

[2] = Ivosidenib plasma PK after multiple oral doses (dose escalation); assay type: in vivo, human; conditions: for Cmax / AUC(0-t) / AUC / Tmax: human, plasma, oral; for Cmax / AUC(0-t) / AUC: geometric mean; for AUC(0-t): read-out: AUC0-10hr; for AUC: read-out: AUC0-tau
Procedure: In the dose escalation portion, patients with 1) glioma and 2) non-glioma solid tumors were enrolled into sequential cohorts using a standard 3 + 3 design. […] At least 3 patients in each cohort also received a single dose 3 days prior to the start of multiple dosing (i.e., day −3).
These samples were optional for any further patients enrolled in these cohorts. Further blood samples were collected from all patients up to 10 h postdose on cycle 1, day 15 and cycle 2, day 1. A subset of samples was also used for evaluation of plasma 4β-hydroxycholesterol (4β-OHC) and 4β-OHC:cholesterol ratios. Blood samples for assessment of 2-HG only were also collected at screening.
as §1
PK parameters included area under the plasma concentration-time curve (AUC), maximum plasma concentration (Cmax), time to maximum plasma concentration (Tmax), terminal elimination half-life (t1/2), and apparent oral clearance at steady state (CLss/F). Accumulation ratio (Racc), based on Cmax and AUC, was also assessed during the dose escalation portion. PD (2-HG) parameters included baseline-effect value, area under the effect concentration-time curve (AUEC0-10h for the dose escalation portion, or AUEC0-8h for the dose escalation and expansion portions), percent change from baseline in AUEC (%BAUEC0-10h for the escalation portion, or %BAUEC0-8h for the dose escalation and expansion portions), average plasma concentration (Cavg), and percent inhibition for Cavg (%BCavg). For the dose escalation portion, the time-matched ratios of 4β-OHC to cholesterol were calculated.

[3] = system: IDH1-mutant advanced solid tumors; conditions: Cmax,ss or AUCss vs best response, dose range tested
From the text: A total of 6 adverse event categories, based on both laboratory abnormalities and reported adverse events, were included in the exposure-response analyses. […] The efficacy endpoint of interest was best response. The exposure-response analyses used modeled nominal steady-state Cmax (Cmax,ss) or AUC (AUCss) as predictors for safety and efficacy variables in the two subgroups of tumor types described earlier.

[4] = Effect of intrinsic and extrinsic factors on ivosidenib CLss/F; assay type: in vivo, human; conditions: 500 mg QD, cycle 2 day 1
Procedure: Continuous factors assessed included age, body weight, body mass index, baseline creatinine clearance (CLcr), baseline estimated glomerular filtration rate (eGFR), and markers of hepatic function (alanine aminotransferase [ALT], alkaline phosphatase [ALP], aspartate aminotransferase [AST], bilirubin, total protein, and albumin). CLcr was calculated using the Cockcroft and Gault equation and eGFR was calculated using the Modification of Diet in Renal Disease – National Kidney Disease Education Program equations [15]. Categorical factors assessed included sex, ethnicity, race, disease status, concomitant CYP3A4 inhibitor and inducer status, baseline hepatic and renal function category, and tumor type. Renal function was categorized as normal (CLcr ≥ 90 mL/min or eGFR ≥90 mL/min/1.73 m^2), mild impairment (CLcr ≥ 60–89 mL/min or eGFR ≥60–89 mL/min/1.73 m^2), moderate impairment (CLcr ≥ 30–59 mL/min or eGFR ≥30–59 mL/min/1.73 m^2), and severe impairment (CLcr ≥ 15–29 mL/min or eGFR ≥15–29 mL/min/1.73 m^2). Hepatic function category was based on National Cancer Institute (NCI) organ dysfunction working group (ODWG) criteria for hepatic dysfunction (0 = normal, 1 = mild, 2 = moderate, 3 = severe, 4 = liver transplant).

[5] = parameters: method as in Agios data on file; conditions: ref Agios data on file; cited from earlier work
[6] = 100 mg, non-glioma solid tumors, 100 mg BID, cycle 2 day 1
[7] = 300 mg, glioma, 300 mg QD, cycle 2 day 1
[8] = 300 mg, non-glioma solid tumors, 300 mg QD, cycle 2 day 1
[9] = 400 mg, non-glioma solid tumors, 400 mg QD, cycle 2 day 1
[10] = 500 mg, glioma, 500 mg QD, cycle 2 day 1
[11] = 500 mg, non-glioma solid tumors, 500 mg QD, cycle 2 day 1
[12] = 600 mg, glioma, 600 mg QD, cycle 2 day 1
[13] = 800 mg, non-glioma solid tumors, 800 mg QD, cycle 2 day 1
[14] = 900 mg, glioma, 900 mg QD, cycle 2 day 1
[15] = 1200 mg, non-glioma solid tumors, 1,200 mg QD, cycle 2 day 1

## N#Cc1ccnc(N2C(=O)CC[C@H]2C(=O)N(c2cncc(F)c2)[C@H](C(=O)NC2CC(F)(F)C2)c2ccccc2Cl)c1 [ivosidenib]
[1]
  inhibition at 500 mg: ≤ 100%
[2]; day 15
  accumulation at steady state: approximately 1.5 fold
[2]; [6]
  Cmax: 3560 ng/mL
  AUC(0-t): 28600 ng·h/mL
  AUC: 33600 ng·h/mL
[2]; 100 mg, non-glioma solid tumors, 100 mg BID, cycle 2 day 1, median, read-out: Tmax
  Tmax: 2.5 h
[2]; [7]
  Cmax: 3290 ng/mL
  AUC(0-t): 23700 ng·h/mL
  AUC: 50800 ng·h/mL
[2]; 300 mg, glioma, 300 mg QD, cycle 2 day 1, median, read-out: Tmax
  Tmax: 2.54 h
[2]; [8]
  Cmax: 3160 ng/mL
  AUC(0-t): 23400 ng·h/mL
  AUC: 53200 ng·h/mL
[2]; 300 mg, non-glioma solid tumors, 300 mg QD, cycle 2 day 1, median, read-out: Tmax
  Tmax: 2.05 h
[2]; [9]
  Cmax: 6800 ng/mL
  AUC(0-t): 51600 ng·h/mL
[2]; 400 mg, non-glioma solid tumors, 400 mg QD, cycle 2 day 1, median, read-out: Tmax
  Tmax: 3.03 h
[2]; [10]
  Cmax: 2900 ng/mL
  AUC(0-t): 20500 ng·h/mL
  AUC: 44400 ng·h/mL
[2]; 500 mg, glioma, 500 mg QD, cycle 2 day 1, median, read-out: Tmax
  Tmax: 2 h
[2]; [11]
  Cmax: 4420 ng/mL
  AUC(0-t): 33900 ng·h/mL
  AUC: 72800 ng·h/mL
[2]; 500 mg, non-glioma solid tumors, 500 mg QD, cycle 2 day 1, median, read-out: Tmax
  Tmax: 2.96 h
[2]; [12]
  Cmax: 3800 ng/mL
  AUC(0-t): 29100 ng·h/mL
  AUC: 59800 ng·h/mL
[2]; 600 mg, glioma, 600 mg QD, cycle 2 day 1, median, read-out: Tmax
  Tmax: 2 h
[2]; [13]
  Cmax: 6050 ng/mL
  AUC(0-t): 44500 ng·h/mL
[2]; 800 mg, non-glioma solid tumors, 800 mg QD, cycle 2 day 1, median, read-out: Tmax
  Tmax: 2 h
[2]; [14]
  Cmax: 4100 ng/mL
  AUC(0-t): 31100 ng·h/mL
  AUC: 64500 ng·h/mL
[2]; 900 mg, glioma, 900 mg QD, cycle 2 day 1, median, read-out: Tmax
  Tmax: 2.52 h
[2]; [15]
  Cmax: 7580 ng/mL
  AUC(0-t): 57700 ng·h/mL
  AUC: 120000 ng·h/mL
[2]; 1200 mg, non-glioma solid tumors, 1,200 mg QD, cycle 2 day 1, median, read-out: Tmax
  Tmax: 2.92 h
[2]; after multiple doses, glioma and non-glioma solid tumors, read-out: median Tmax
  Tmax: 2 to 3 h
[2]; multiple dosing, cycle 1
  steady state reached by: ≤ 15 days
[2]; of cycle 1
  steady state for ivosidenib plasma exposure and plasma 2-HG inhibition reached within: ≤ 14 days
[3]
  exposure-efficacy relationship: flat
[4]
  effect of concomitant weak CYP3A4 inhibitors or inducers on CLss/F: no apparent effect; also recorded: did not appear to affect
  effect of mild or moderate renal impairment or mild hepatic impairment on CLss/F: no apparent effect
[5]
  FDA Biopharmaceutical Classification System class: BCS Class II
  permeability (BCS): high permeability
  solubility (BCS): low solubility

— publication PMC7066280 (Investigational New Drugs, 2019)
